Data taken from ChEMBL document CHEMBL1201862, “PubChem BioAssay data set” (2004).
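How tested: cells in 96-well plates exposed to compound for 48 hours at five concentrations. GI50 marks 50% less growth.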 Activity calls are given as the source filed them. Rule as the data show it: active = GI50 up to about 1.1 µM and inactive = higher.

Assays:
Experiment in all cases: NCI anticancer screen, dose series, 48 h
[1] = system: BT-549
[2] = system: HCC 2998
[3] = system: HT-29
[4] = system: SF-295
[5] = system: HL-60
[6] = system: ACHN
[7] = system: SN12C
[8] = system: A549
[9] = system: SNB-75
[10] = system: SK-MEL-5
[11] = system: OVCAR-8
[12] = system: SK-MEL-2
[13] = system: SK-OV-3
[14] = system: K562
[15] = system: HOP-62
[16] = system: MCF7
[17] = system: SF-539
[18] = system: UACC-62
[19] = system: EKVX
[20] = system: HCT-116

Measured: GI50

COCn1c(=O)n(C)c(=O)c2c1nc1c(c(=O)n(C)c(=O)n1COC)[n+]2[O-]
inactive: [1] 10.3 µM | [2] 5.33 µM | [3] 18.8 µM | [4] 7.55 µM | [5] 12.7 µM | [6] 5.73 µM | [7] 7.08 µM | [8] 23.4 µM | [9] 2.75 µM | [10] 5.83 µM | [11] 5.7 µM | [12] 12.6 µM | [13] 7.03 µM | [14] 4.75 µM | [15] 9.23 µM | [16] 20.4 µM | [17] 14.6 µM | [18] 7.01 µM | [19] 7.85 µM | [20] 10.6 µM

CC1OC(OC2C(OC(=O)[C@]34CCC(C)(C)C[C@H]3C3=CC[C@@H]5[C@@]6(C)CC[C@H](OC7OC(CO)C(O)C(O)C7OC7OC(CO)C(O)C(O)C7O)C(C)(C)[C@@H]6CC[C@@]5(C)[C@]3(C)CC4)OCC(O)C2O)C(O)C(O)C1OC1OCC(O)C(O)C1O (stereo not given in full)
inactive: [1] 9.12 µM | [2] 1.98 µM | [3] 7.03 µM | [4] 11.2 µM | [5] 6.11 µM | [6] 11.9 µM | [7] 3.13 µM | [8] 6.37 µM | [9] 16.7 µM | [10] 14.3 µM | [11] 16.5 µM | [12] 6.32 µM | [13] 16.3 µM | [14] 10.8 µM | [15] 15.3 µM | [16] 12.6 µM | [17] 45.8 µM | [18] 16.9 µM | [19] 5 µM | [20] 11 µM

Cn1c(=O)cc(/N=N\c2ccc(Cl)c(Cl)c2)[nH]c1=O
inactive: [1] 29 µM | [2] 56.8 µM | [3] 19.9 µM | [4] > 100 µM | [5] 20.8 µM | [6] 21.2 µM | [7] 41.1 µM | [8] > 100 µM | [9] 49.2 µM | [10] 35.2 µM | [11] 23.4 µM | [12] 14.6 µM | [13] > 100 µM | [14] 28.1 µM | [15] > 100 µM | [16] 26.7 µM | [17] > 100 µM | [18] 62.2 µM | [19] 24.5 µM | [20] 28.4 µM

O=C(NNCC(F)(F)F)c1ccncc1
inactive: [1] > 100 µM | [2] > 100 µM | [3] > 100 µM | [4] > 100 µM | [5] > 100 µM | [6] > 100 µM | [7] > 100 µM | [8] > 100 µM | [9] > 100 µM | [10] > 100 µM | [11] > 100 µM | [12] > 100 µM | [13] > 100 µM | [14] > 100 µM | [15] > 100 µM | [16] > 100 µM | [17] > 100 µM | [18] > 100 µM | [19] > 100 µM | [20] > 100 µM

C(=N\Nc1nnc2c(n1)[nH]c1ccccc12)/c1cccnc1
inactive: [1] > 100 µM | [2] > 100 µM | [3] > 100 µM | [4] > 100 µM | [5] > 100 µM | [6] > 100 µM | [7] > 100 µM | [8] > 100 µM | [9] > 100 µM | [10] > 100 µM | [11] > 100 µM | [12] > 100 µM | [13] > 100 µM | [14] > 100 µM | [15] > 100 µM | [16] > 100 µM | [17] > 100 µM | [18] > 100 µM | [19] > 100 µM | [20] > 100 µM

COCn1c(C)c(C)c2c(=O)oc(N(C)C)nc21
inactive: [1] > 100 µM | [2] > 100 µM | [3] > 100 µM | [4] > 100 µM | [5] > 100 µM | [6] > 100 µM | [7] > 100 µM | [8] > 100 µM | [9] > 100 µM | [10] > 100 µM | [11] > 100 µM | [12] > 100 µM | [13] > 100 µM | [14] > 100 µM | [15] > 100 µM | [16] > 100 µM | [17] > 100 µM | [18] > 100 µM | [19] > 100 µM | [20] > 100 µM

Cc1ccc([N+](=O)[O-])cc1S(=O)(=O)Nc1ccc(C2=NOC(c3cccs3)C2)cc1 (stereo not given)
inactive: [1] 13.2 µM | [2] 9.25 µM | [3] 12.5 µM | [4] 3.9 µM | [5] 3.55 µM | [6] 14.8 µM | [7] 17.9 µM | [8] 12.1 µM | [9] 16.1 µM | [10] 7.66 µM | [11] 22.9 µM | [12] 4.81 µM | [13] 14.2 µM | [14] 3.58 µM | [15] 5.79 µM | [16] 5.73 µM | [17] 13.5 µM | [18] 3.78 µM | [19] 19.9 µM | [20] 11.1 µM

CSC(=NC1=NC(C(F)(F)F)(C(F)(F)F)N=C(c2ccccc2)O1)SC
inactive: [1] 10.8 µM | [2] 12.5 µM | [3] 16.4 µM | [4] 7.13 µM | [5] 30.9 µM | [6] 3.53 µM | [7] 17.1 µM | [8] 10.5 µM | [9] 3.15 µM | [10] 16.1 µM | [11] 5.98 µM | [12] 16 µM | [13] 16.4 µM | [14] 6.1 µM | [15] 9.1 µM | [16] 14.8 µM | [17] 29.2 µM | [18] 20 µM | [19] 9.27 µM | [20] 4.01 µM

O=C(O)C1CC=CCC1C(=O)Nc1cccc(O)c1 (stereo not given)
inactive: [1] > 100 µM | [2] > 100 µM | [3] > 100 µM | [4] > 100 µM | [5] > 100 µM | [6] > 100 µM | [7] > 100 µM | [8] > 100 µM | [9] > 100 µM | [10] > 100 µM | [11] > 100 µM | [12] > 100 µM | [13] > 100 µM | [14] > 100 µM | [15] > 100 µM | [16] > 100 µM | [17] > 100 µM | [18] > 100 µM | [19] > 100 µM | [20] > 100 µM

CC1c2ccccc2Cn2cc3c(c21)C(=O)c1cccc(OP(=O)(O)OCc2ccccc2)c1C3=O (stereo not given)
inactive: [1] > 100 µM | [2] > 100 µM | [3] > 100 µM | [4] > 100 µM | [5] > 52.5 µM | [6] > 100 µM | [7] > 100 µM | [8] > 100 µM | [9] > 100 µM | [10] > 100 µM | [11] > 100 µM | [12] > 100 µM | [13] > 100 µM | [14] > 74.6 µM | [15] > 100 µM | [16] 71.9 µM | [17] > 100 µM | [18] > 100 µM | [19] > 66.1 µM | [20] > 100 µM
